Laboratory results reported in US4173650A, “Cis-2-benzoyl-3-hydroxy-2-alkenonitriles as anti-inflammatory agents” (American Cyanamid Company, priority 1978, dated 1979).
Like-named read-outs stand apart in the source and are kept apart here.

Legend:
[1] = system: Carrageenin-Induced Edema; test: Carrageenin-induced edema in the rat; type: in vivo, rat (Royal Hart, Wistar strain); settings: by gavage, 5 hours after drug (4 hours after carrageenin challenge); dose not given
Procedure: In determining the acute anti-inflammatory activity of the cis-2-benzoyl-3-hydroxy-2-alkenonitriles of the present invention, Royal Hart, Wistar strain rats, ranging in weight from 80 to 90 grams were used. The rats were fasted overnight prior to dosing but had free access to water. The test compounds were administered in aqueous suspension, by gavage, in a volume of 1.7 ml. per 50 grams of rat [corresponds to hydration volume used by Winter, et al., Proc. Soc. […] The phlogistic agent used was carrageenin prepared as a sterile 1% suspension in 0.9% aqueous sodium chloride for routine testing. A volume of 0.05 ml. was injected through a 26 gauge needle into the plantar tissue of the right hind paw. Measurements were made 5 hours after drug administration (4 hours after carrageenin challenge). Volumes of both the normal and carrageenin inflammed feet were determined. The difference between the two measurements is considered to be the increased edema due to the carrageenin administration. Results are expressed as a C/T efficacy ratio (edema of control animals/edema of treated animals).

[2] = system: Adjuvant Induced Arthritis; test: Adjuvant-induced arthritis in the rat; type: in vivo, rat (Royal Hart, Wistar strain); settings: for inhibition in vivo at 25 mg/kg: oral 25 mg./kg.; for inhibition in vivo at 50 mg/kg: oral 50 mg./kg.
Procedure: Groups of three Royal Hart, Wistar strain rats weighing 200±10 g. each were injected intradermally in the right hind paw with Freund's adjuvant (dried human tubercle bacilli in a mineral oil vehicle) at a dose of 2 mg./kg. of body weight. The test compounds were administered orally in a 1.5% starch vehicle at various doses once daily on days 0 to 13 post challenge. Control rats were treated in a similar manner, but given only starch vehicle. On the 14th and 21st day post challenge the diameter of the injected paw was measured by micrometer caliper. The volume of inflamed paws were estimated from these measurements and the effects of each compound are expressed as percent inhibition of swelling as compared to controls. Table II records the results of these tests conducted with representative compounds of this invention and known anti-inflammatory agents. The active compounds of this invention suppress the progression of the arthritis and associated joint deterioration.
Adjuvant-induced experimental polyarthritis is a specific systemic disease of the rat which shares interesting similarities with rheumatoid arthritis. Specifically the histology of the two diseases bears a remarkable resemblence as shown by C. M. Pearson et al., Am. J. Path. 42, 73 (1963). E. M. Glenn, Am. J. Vet. Res. 27, (116), 339 (1966) has classified adjuvant-induced polyarthritis as a crippling and permanent deformity resulting from diffuse connective tissue involvement areound certain susceptible joints in the rat. Zahiri et al, Can. Med. Ass. J., 101, 269 (1969) have shown that the fusiform swelling of the distal joints is associated with edema, congestion and synovitis including pannus formation, all of which precede the ultimate destruction of bone and cartilage. Furthermore, Zahiri et al., indicate that the cartilage destruction in the joint is due to an invasive pannus which originates in the marginal synovium and extends across the articular surface to erode it. […] The most pointed reference showing the relationship between arthritis and joint deterioration is an X-Ray analysis of adjuvant arthritis in the rat by Blackham et al., Agents and Actions 7, 145 (1977). In a similar manner, inhibition of the progress of arthritis in paws of rats treated with the compounds of this invention also lessens associated joint deterioration.

[3] = system: Migration Inhibitory Factor; test: Migration inhibitory factor in the guinea pig (capillary tube macrophage migration assay, direct MIF assay); type: cell-based, guinea pig (male Hartley); settings: number of tests wherein the percent reversal of inhibition =15%
Text: Rheumatoid arthritis is a chronic inflammatory disease that is characterized by the migration of lymphocytes, macrophages and polymorphonuclear leukocytes to the sites of inflammation. The migration of lymphocytes and macrophages and their multiplication in situ is one reason for the very large increase in size of the normally thin synovial membrane, the membrane that encloses the joint space. The synovial membrane that has been transformed in this manner, slowly grows over the aricular surfaces and causes the destruction of the articular cartilage and other connective tissue structures of the joint. One of the mechanisms for the destruction of articular cartilage by the synovium is believed to be through the release of various hydrolytic enzymes by the resident macrophages which have been immobilized and activated by migration inhibitory factor (MIF). Macrophages stimulated by MIF are termed "activated macrophages" and undergo the following changes: (a) increased glucose oxidation, (b) increased ruffling of plasma membrane and increased spreading of cells, (c) synthesis and secretion of neutral proteases, (d) release of preformed lysosomal enzymes, (e) decreased migration from a capillary tube. […] Drugs that can therefore block the release of MIF by lymphocytes or the activation of macrophages by MIF should be clinically effective in retarding the destructive joint damage which occurs in rheumatoid arthritis. Drugs can be tested as MIF inhibitors by using the capillary tube migration assay as follows.
Male Hartley guinea pigs, weighing between 300 and 600 grams, are injected intraperitoneally with 25 ml Marcal 52 Oil® (Humble Oil). Three to four days later, the guinea pigs are sacrificed by decapitation, the peritoneum opened, and the exudate aspirated into a separatory funnel after the addition of 50 ml of cold Hank's solution. This is repeated two times. The oil phase is discarded and the cell supsension is spun down at 1200 r.p.m. for ten minutes. The cells are resuspended in Hank's solution and spun down at 900 r.p.m. for five minutes. This is repeated two times. Viability of the cells is then determined using trypan blue. In all experiments, viability is greater than 90%. The cell concentration is then adjusted to give a 10% packed cell volume by the addition of the appropriate amount of MEM® (Gibco 109)+15% guinea pig serum. […] To determine the area of cell migration out of the capillary tube onto the chamber surface, the chambers are projected onto a microscope screen, the area traced onto paper, and then measured using a planimeter. […]

arthritic paw swelling = settings: cited from earlier work
[4] = 336 h, once daily days 0 to 13, read-out: % Inhibition of Swelling, Day 14
[5] = 504 h, once daily days 0 to 13, read-out: % Inhibition of Swelling, Day 21

Structure (SMILES): CC(=O)Oc1ccccc1C(=O)O [Aspirin, reference compound]
- C/T Ratio (edema of control animals/edema of treated animals) [1]: 2.86

Structure (SMILES): COc1ccc(C(=O)/C(C#N)=C(/C)O)cc1 [Cis-3-hydroxy-2-(p-methoxybenzoyl)crotononitrile]
- C/T Ratio (edema of control animals/edema of treated animals) [1]: 1.59

Structure (SMILES): C/C(O)=C(\C#N)C(=O)c1ccc(Cl)cc1 [Cis-2-(p-chlorobenzoyl)-3-hydroxycrotonitrile]
- inhibition in vivo at 25 mg/kg [2, 4]: 58%
- inhibition in vivo at 25 mg/kg [2, 5]: 15%

Structure (SMILES): COc1ccccc1C(=O)/C(C#N)=C(/C)O [Cis-3-hydroxy-2-(o-anisoyl)crotononitrile]
- C/T Ratio (edema of control animals/edema of treated animals) [1]: 1.30
- #Actives/Total Tests ([3]; 5×10^-5 M): 4/5

Structure (SMILES): C/C(O)=C(\C#N)C(=O)c1ccc(F)cc1 [Cis-2-(p-fluorobenzoyl)-3-hydroxycrotononitrile]
- inhibition in vivo at 25 mg/kg [2, 4]: 65%
- inhibition in vivo at 25 mg/kg [2, 5]: 30%
- #Actives/Total Tests ([3]; 5×10^-5 M): 4/4

Structure (SMILES): C/C(O)=C(\C#N)C(=O)c1ccc(C)cc1 [Cis-3-hydroxy-2-p-toluoylcrotononitrile, Cis-3-hydroxy-2-(p-toluoyl)crotonitrile]
- C/T Ratio (edema of control animals/edema of treated animals) [1]: 1.41

Structure (SMILES): C/C(O)=C(\C#N)C(=O)c1ccc(Br)cc1 [Cis-2-(p-bromobenzoyl)-3-hydroxycrotononitrile]
- #Actives/Total Tests ([3]; 10 μg./ml.): 2/3

Structure (SMILES): COc1ccc2c(c1)c(CC(=O)O)c(C)n2C(=O)c1ccc(Cl)cc1 [Indomethacin]
- effect on joint and bone deterioration (arthritic paw swelling; S. Wong et al. 1973, G. R. Bobalick et al. 1974): prevent joint and bone deterioration
- effect on arthritic paw swelling (arthritic paw swelling; literature): inhibit arthritic paw swelling

Structure (SMILES): C/C(O)=C(\C#N)C(=O)c1ccc(C(F)(F)F)cc1 [Cis-3-hydroxy-2-(α,α,α-trifluoro-p-toluoyl)crontononitril]
- C/T Ratio (edema of control animals/edema of treated animals) [1]: 1.97
- inhibition in vivo at 25 mg/kg [2, 4]: 68%
- inhibition in vivo at 25 mg/kg [2, 5]: 5%

Structure (SMILES): C/C(O)=C(\C#N)C(=O)c1cccc(F)c1 [Cis-2-(m-fluorobenzoyl)-3-hydroxycrotononitrile]
- C/T Ratio (edema of control animals/edema of treated animals) [1]: 1.61
- inhibition in vivo at 50 mg/kg [2, 4]: 48%
- inhibition in vivo at 50 mg/kg [2, 5]: 37%

Structure (SMILES): C/C(O)=C(\C#N)C(=O)c1ccccc1Cl [Cis-2-(o-chlorobenzoyl)-3-hydroxycrotononitrile]
- inhibition in vivo at 50 mg/kg [2, 4]: 39%
- inhibition in vivo at 50 mg/kg [2, 5]: 29%

Structure (SMILES): C/C(O)=C(\C#N)C(=O)c1ccccc1F [Cis-2-(o-fluorobenzoyl)-3-hydroxycrotononitrile]
- C/T Ratio (edema of control animals/edema of treated animals) [1]: 2.18

Structure (SMILES): C/C(O)=C(\C#N)C(=O)c1cccc(Cl)c1C [Cis-2-(3-chloro-o-toluoyl)-3-hydroxycrotononitrile]
- inhibition in vivo at 50 mg/kg [2, 4]: 61%
- inhibition in vivo at 50 mg/kg [2, 5]: 17%
- #Actives/Total Tests ([3]; 5×10^-5 M): 3/5
